Results from patent US12358948B2, “Neurotensinergic agonists and methods of using same preventing or treating pain” (priority 2019, dated 2025).
“And” between values parts separate entries of the source, which are not always exact repeats. Equal entries are not always repeated. “Also recorded” adds a separate entry of the source. Where a SMILES comes first, the peptide text is derived from it. Bridges are numbered along the chain shown (N, C = ends). [ ]: non-standard residue; d: D form. Ala(cPent) = N[C@@H](CC1CCCC1)C(=O)O; AllylGly = C=CC[C@H](N)C(=O)O

How the values were obtained:
Sprague-Dawley rats = test: Tail-flick test (acute thermal pain), intrathecal injection; format: in vivo, rat; settings: for ED50, tail-flick test: from % MPE at 10 min post-injection, rat; for tail-flick latency time compared to saline injection: i.t. 10 to 150 μg/kg (compound 34) or 3 to 61 nmol/kg (compound 67); for % MPE: 10 min post-injection
Protocol: Rats were housed two per cage on Aspen shavings in a quiet room and kept on a 12 h light/dark cycle and allowed ad libitum access to food and water. The experimental procedures in this study were approved by the Animal Care Committee of Université de Sherbrooke and were in accordance with policies and directives of the Canadian Council on Animal Care.
Tail-flick test: The tail flick test was used as outcome measures heat-induced pain in animals and as indicators of a compound's analgesic efficacy.
Acute pain was assessed using the Tail flick test (Tail Flick Analgesia meterV2.00, Colombus Instruments, Columbus, Ohio, USA). Tail flick test measures sensitivity to a high-intensity light beam focused on the rat tail. The tail flick apparatus was set at a light intensity of 6 and a cutoff of 10 seconds. The latency to flick the tail out of the path of the light beam corresponds to the measure of pain sensitivity or analgesia.
Before testing, animals were individually acclimatized to manipulations and behavioral apparatus 5 min/day for three consecutive days. On the test day, latencies baseline measures were taken before drug injection to provide a mean baseline. The compounds were diluted in 0.9% saline at the desired dose. The effects of the compound or saline on thermal nociception were assessed every 10 min for up to 60 min following i.t. administration.
Moreover, tail flick latencies were converted into the percent maximal possible effect (% MPE) at the time of maximal peak of analgesia. % MPE were calculated according to the following formula: % MPE=[(Test latency)−(Saline latency)]/[(Cutoff)−(Saline latency)]×100. Data are expressed as mean±SEM of 5-8 animals for each dose.
Then, ED50 values were determined using the dose-response stimulation log(agonist) vs response (four parameters).
(§1) Data are expressed as mean±standard errors of the mean (SEM). All graphs and statistical analysis were performed using GraphPad Prism™ 7 (GraphPad software, La Jolla, CA, USA). […] A two-way ANOVA followed by Tukey's multiple comparisons test was used to determine the significant differences in changes in body temperature between different concentrations of compounds and saline (FIG. 9). The % MPE for the tail-flick test and the areas under the curve for the formalin test were analyzed using a one-way ANOVA followed by a Dunnett's multiple comparisons test to compare different concentrations of compounds and saline treatment (FIGS. 2B, 4B, 7A-B and 8B-D). […] Nonlinear regression using three parameters was performed for % of ileum relaxation and IC50 value was obtained from the resulting dose-response curve (FIG. 11). A difference in response was considered significant with p-values *p<0.05, **p<0.01, ***p<0.001 and **p<0.0001.

[1] = Body temperature (hypothermia) after intrathecal injection; format: in vivo, rat; settings: vs saline
Protocol: Body temperature was measured using a thermistor probe inserted into the rectum of the rats. Animals were individually acclimatized to manipulations and thermistor probe 5 min/day for three consecutive days. […] Changes in body temperature (Δ body temperature) were determined from baseline for each time and each animal. Data represents the mean±SEM of 5-6 rats for each condition.
as §1

hNTS1 receptor = biological target: T1, hNTS1 receptor (Homo sapiens, UniProt P30989); test: Competitive radioligand binding assay on the hNTS1 receptor; settings: IC50 NTS1, displacement of 125I-[Tyr3]-NT, membranes of CHO-K1 cells expressing hNTS1
T1 construct: membranes prepared from them
T1 sequence (P30989 whole entry): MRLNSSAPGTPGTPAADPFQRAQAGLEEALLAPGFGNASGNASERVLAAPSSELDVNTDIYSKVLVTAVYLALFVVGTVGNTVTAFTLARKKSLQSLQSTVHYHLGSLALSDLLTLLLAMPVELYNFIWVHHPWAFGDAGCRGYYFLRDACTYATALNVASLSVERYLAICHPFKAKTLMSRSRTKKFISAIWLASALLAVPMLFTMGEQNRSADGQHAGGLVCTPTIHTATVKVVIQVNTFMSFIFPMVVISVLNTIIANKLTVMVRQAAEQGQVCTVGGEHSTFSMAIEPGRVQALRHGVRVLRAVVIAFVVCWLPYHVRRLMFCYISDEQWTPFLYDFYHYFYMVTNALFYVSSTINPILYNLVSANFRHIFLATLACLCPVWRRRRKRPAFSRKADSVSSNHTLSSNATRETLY
Outline: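 Membranes from CHO-K1 cells expressing hNTS1 (15 µg, […] ¹²⁵I-[Tyr³]-NT) or 1321N1 cells expressing hNTS2 (50 µg, […] radioligand) were incubated with analogues at 10⁻¹¹–10⁻⁴ M for 60 min at 25 °C in Tris-HCl pH 7.5/0.2% BSA. Filtration and γ-counting followed; nonspecific binding was defined with 10⁻⁵ M NT(8-13), and IC50 was obtained by one-site fit.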

Row | SMILES | tail-flick latency at the lowest dose (Sprague-Dawley rats; 10 μg/kg i.t. (data not shown)) | ED50, tail-flick test (Sprague-Dawley rats; i.t.) | tail-flick latency time compared to saline injection (Sprague-Dawley rats) | % MPE (Sprague-Dawley rats; tail-flick, two higher doses i.t.) | dose at which analgesic effect / MPE reached a plateau (Sprague-Dawley rats; tail-flick, i.t.) | Hypothermia (i.t.) ([1]; 150 μg/kg i.t.) | IC50 (hNTS1 receptor) | latency of the tail-flick reflex compared to baseline (Sprague-Dawley rats; 61 nmol/kg i.t.) | tail-flick latency at low doses (Sprague-Dawley rats; doses inferior to 3 nmol/kg i.t. (data not shown)) | antinociceptive effect compared with the other tested compounds (Sprague-Dawley rats; equimolar doses (61 nmol/kg i.t.)) | MPE plateau at the tested doses (Sprague-Dawley rats; tail-flick, 3 to 61 nmol/kg i.t.) | % MPE (Sprague-Dawley rats; tail-flick, highest dose i.t.) | Hypothermia (i.t.) ([1]; 209 nmol/kg i.t.)
1 | CC(C)C[C@H](NC(=O)[C@H](Cc1ccc(O)cc1)NC(=O)[C@@H]1CC=CC[C@H](N)C(=O)N[C@@H](CCCCN)C(=O)N[C@@H](CCCCN)C(=O)N1)C(=O)O [compound 34, c[G(All)KKG(All)]YL] (H-[AllylGly]KK[AllylGly]YL-OH; staple 1-4) | no apparent increase in latency | 48.52 μg/kg and 61 nmol/kg | significantly increased | at least 98% | around 90 μg/kg | no significant variation in body temperature; also recorded: No hypothermia | 199 µM and 100 µM |  |  |  |  |  | 
2 | NCCCC[C@@H]1NC(=O)[C@H](CCCCN)NC(=O)[C@@H](N)CC=CC[C@@H](C(=O)N[C@@H](Cc2ccc(O)cc2)C(=O)N[C@@H](CC2CCCC2)C(=O)O)NC1=O [compound 67, c[G(All)KKG(All)]YA(cyclopentyl)] (H-[AllylGly]KK[AllylGly]Y[Ala(cPent)]-OH; staple 1-4) |  | 8.14 nmol/kg | significantly increased |  |  |  | > 100 µM | sustainably increased latency | no apparent increase in latency | highest antinociceptive effect | did not reach a plateau | at least 91% | no significant variation in body temperature; also recorded: No hypothermia
